Read-outs that look alike come from different tables or passages of the source.
Biological target: T1, Human full-length diacylglycerol:acylCoA acyltransferase 1 (DGAT-1) (Homo sapiens, UniProt O75907)
T1 construct: Human full-length diacylglycerol:acylCoA acyltransferase 1 (DGAT-1) was expressed in Sf9 insect cells; made in house; host or cells: Sf9 insect cells (baculovirus)
T1 sequence (O75907 1-488): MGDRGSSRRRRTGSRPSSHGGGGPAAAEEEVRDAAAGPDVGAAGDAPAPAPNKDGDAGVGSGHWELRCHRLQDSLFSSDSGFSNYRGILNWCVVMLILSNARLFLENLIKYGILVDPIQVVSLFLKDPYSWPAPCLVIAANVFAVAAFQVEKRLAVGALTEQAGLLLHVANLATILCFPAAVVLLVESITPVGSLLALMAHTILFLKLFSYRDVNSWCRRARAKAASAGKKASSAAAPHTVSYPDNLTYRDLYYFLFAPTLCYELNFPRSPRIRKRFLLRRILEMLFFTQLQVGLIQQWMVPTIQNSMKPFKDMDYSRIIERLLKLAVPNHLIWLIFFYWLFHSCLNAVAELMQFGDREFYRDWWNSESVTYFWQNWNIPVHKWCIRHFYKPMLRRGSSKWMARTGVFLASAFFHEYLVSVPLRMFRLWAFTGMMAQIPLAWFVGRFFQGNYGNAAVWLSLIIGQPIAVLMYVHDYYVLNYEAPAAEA
Experiment: In vitro assay for DGAT-1 inhibition ([14C]decanoylCoA, Sf9 membrane fraction)
Assay type: biochemical
Protocol: Human full-length diacylglycerol:acylCoA acyltransferase 1 (DGAT-1) was expressed in Sf9 insect cells which are then lysed and a crude membrane fraction (105,000×g pellet) was prepared.
The cells were cultured as follows. Sf9 cells (20 L) were infected with 4 mL of DGAT1 Baculovirus Infected Insect Cells (BIIC) for 72 hours in a Wave Bioreactor System 20/50P (Wave Biotec/GE Healthcare).
Crude DGAT-1 microsomes were prepared as follows. Cell pellets were washed once with ice-cold Dulbecco's phosphate-buffered saline. Cells were collected in tabletop centrifuge (Beckman GS-6KR), 15 minutes, 2000×g, 4° C. Twenty (20) mL of ice-cold Microsome Buffer (MB) was added per 5 g of cell pellet. The suspension was passed through a microfluidizer 3 times (18K psi). The lysate was transferred to centrifuge tubes and centrifuged for 20 minutes at 5000×g (Beckman-Coulter, Inc. Allegra® 64R High-Speed Refrigerated Benchtop Centrifuge, F0650 rotor) at 4° C. The supernatant was transferred to Ultracentrifuge tubes and centrifuged at […] for 1 hr in a Beckman Ti-45 rotor, 4° C. The supernatant fluid was discarded. The pellet was resuspended in 70 mL of MB by sonication. The microsome concentration was determined using Bio-Rad Protein DC Protein Assay. The microsomes were filter sterilized with a 0.22 μm filter. The samples were portioned, flash frozen and stored at −80° C.
Inhibitors in DMSO were pre-incubated with membranes before initiating the DGAT-1 reaction by the addition of decanoylCoA. […] The inhibitors were present at a range of eight concentrations to generate an apparent IC50 for each compound. […] Specifically, the eight concentrations used were 10 μM, 3 μM, 1 μM, 300 nM, 100 nM, 30 nM, 10 nM and 3 nM.
The reactions were allowed to proceed for 1.5 h at room temperature and then terminated by the addition of 10 μl of HCl (0.5 M). Reaction mixtures were neutralized by the addition of 15 μl of tris(hydroxy-methyl)aminomethane (1M, pH 8.0) and then mixed by trituration with 37.5 μl of Microscint™-E (Perkin Elmer).
Where this DGAT-1 inhibition assay was performed on a compound more than once, an inhibition range is also provided for that compound.

[1] = apparent IC50, eight inhibitor concentrations 10 μM to 3 nM, read-out: IC50
[2] = inhibition range where the assay was performed on a compound more than once, read-out: IC50 range

COC(=O)C1C2C1[C@H]1C[C@@H]2C[C@@H]1c1ccc(N2CCOc3ncnc(N)c3C2=O)cc1 (stereo partly drawn) [Example 56, (1R,5R,6S)-6-[4-(4-Amino-5-oxo-7,8-dihydro-5H-9-oxa-1,3,6-triaza-benzocyclohepten-6-yl)-phenyl]-tricyclo[3.2.1.0*2,4*]octane-3-carboxylic Acid Methyl Ester]
IC50 [1]: 78.3 nM

COC(=O)Cc1ccc(Oc2ccc(N3CCOc4ncnc(N)c4C3=O)cc2)cc1 [Example 54, Methyl {4-[4-(4-amino-5-oxo-7,8-dihydropyrimido[5,4-f][1,4]oxazepin-6(5H)-yl)phenoxy]phenyl}acetate]
IC50 [1]: 254 nM

COC(=O)C1CCC(c2ccc(N3CCOc4ncnc(N)c4C3=O)cc2)CC1 (centres unmarked) [Example 50, 4-[4-(4-Amino-5-oxo-7,8-dihydro-5H-9-oxa-1,3,6-triaza-benzocyclohepten-6-yl)-phenyl]-cyclohexanecarboxylic Acid Methyl Ester]
IC50 [1]: 47.3 nM
IC50 [2]: 45.2 to 49.5 nM

Nc1ncnc2c1C(=O)N(c1ccc(C3=CCC(CC(=O)O)CC3)cc1)CCO2 (single isomer, unassigned; (+)) [Example 53, (+)-{4-[4-(4-Amino-5-oxo-7,8-dihydropyrimido[5,4-f][1,4]oxazepin-6(5H)-yl)phenyl]cyclohex-3-en-1-yl}acetic Acid]
IC50 [1]: 36.4 nM
IC50 [2]: 33.8 to 39.3 nM

C[C@@H]1CN(c2ccc(C3CCC(CC(=O)O)CC3)c(F)c2)C(=O)c2c(N)ncnc2O1 (stereo partly drawn) [Example 17, (R)-2-(4-(4-(4-amino-8-methyl-5-oxo-7,8-dihydropyrimido[5,4-f][1,4]oxazepin-6(5H)-yl)-2-fluorophenyl)cyclohexyl)acetic acid]
IC50 (Examples 17-23 table, range of repeated assays, read-out: DGAT-1 IC50 Range): 3 to 15.5 nM
IC50 (Examples 17-23 table, read-out: DGAT-1 IC50): < 6.21 nM

From patent publication US7718645B2, “Substituted bicyclolactam compounds” (Pfizer Inc., priority 2007, dated 2010)
